Measured values taken from US4327026A, “Benzodiazepine derivatives” (Hoffmann-La Roche Inc., priority 1980, dated 1982).

Tests used:
aldosterone = assay: Aldosterone-antagonistic activity in adrenalectomised rats (urine volume, sodium and potassium excretion); type: in vivo, Female Holtzmann rats; settings: for Volume (urine volume) in %, based on control animals / [K+] (potassium excretion) in %, based on control animals / [Na+] (sodium excretion) in %, based on control animals: 1 mg/kg p.o., 30 min before aldosterone s.c., urine collected 3 hours, vs animals treated only with aldosterone
Description: If compounds of formula I are administered to the animals before the treatment with aldosterone, then there is observed, in comparison to animals which are treated only with aldosterone (control animals), a pronounced increase of the sodium excretion (i.e. the sodium retention caused by aldosterone is antagonised), whereas the potassium excretion and the urine volume are influenced to a lesser extent.
The standard experiment is carried out as follows:
Female Holtzmann rats (150-180 g) are bilaterally adrenalectomised 70 to 74 hours before the beginning of the experiment. After the operation, the animals receive a customary rat dry feed and 0.9% sodium chloride solution for drinking. 16-17 hours before the beginning of the experiment the feed is removed from the animals, but they can subsequently drink, as before, 0.9% sodium chloride solution ad libitum. At the beginning of the experiment the substance to be tested as an aldosterone-antagonist is administered to the animals by means of a stomach probe. 30 minutes later the animals receive a subcutaneous injection of […] of aldosterone. After a further 90 minutes, the urinary bladders of the animals are emptied by careful suprapubic pressure, whereupon the animals are placed individually in metabolic cages without food and without drink. The urine of the animals is then collected for 3 hours, whereupon their urinary bladders are once more emptied. The spontaneously excreted urine and the remaining urine obtained at the conclusion of the experiment by pressing-out the urinary bladders are collected in graduated centrifuge glasses. Sodium and potassium concentrations in the urine are determined with a flame photometer.
(§1) The following Table contains results obtained in the previously described experiment with representative compounds of formula I. In this Table there are given for each of the compounds in question the dosage administered (in mg/kg p.o.) as well as the percentage variation in the urine volume, the sodium excretion and the potassium excretion in comparison with the control animals (i.e. in comparison with the animals treated only with aldosterone). Moreover, the Table contains data concerning the acute toxicity of the compounds investigated (LD 50 in mg/kg in the case of single oral administration to mice).

[1] = Acute toxicity, single oral administration to mice; settings: mouse, in vivo, single oral administration (p.o.)
Source text: as §1

With `CCN1C(=O)CNC(c2ccccc2F)c2cc(C(C)=NO)ccc21` (stereo not drawn) [Example 5] the “Volume (urine volume) in %, based on control animals” value (shortened to “Volume (urine volume) in %, based”) (aldosterone) was 157%, the “[K+] (potassium excretion) in %, based on control animals” value (“[K+] (potassium excretion) in %, based” for short) (aldosterone) was 87% and the “[Na+] (sodium excretion) in %, based on control animals” value (“[Na+] (sodium excretion) in %, based” for short) (aldosterone) was 247%. It also gave an LD50 [1] of over 5000 mg/kg.

With `CC1N=C(c2ccccc2F)c2cc(C(C)N)ccc2N(C)C1=O` (stereo not drawn) [Example 2, 7-(1-aminoethyl)-5-(o-fluorophenyl)-1,3-dihydro-1,3-dimethyl-2H-1,4-benzodiazepin-2-one] the “Volume (urine volume) in %, based” value (aldosterone) was 169%, the “[K+] (potassium excretion) in %, based” value (aldosterone) was 102% and the “[Na+] (sodium excretion) in %, based” value (aldosterone) was 298%. The LD50 [1] was 625 mg/kg.

In the case of `CN1C(=O)CN=C(c2ccccc2)c2cc(CNC(=O)NCCO)ccc21` [Example 22, 1-[(2,3-dihydro-1-methyl-2-oxo-5-phenyl-1H-1,4-benzodiazepin-7-yl)methyl]-3-(2-hydroxyethyl)urea], the “Volume (urine volume) in %, based” value (aldosterone) is reported as 130%, the “[K+] (potassium excretion) in %, based” value (aldosterone) is reported as 82% and the “[Na+] (sodium excretion) in %, based” value (aldosterone) is reported as 224%. It also gave an LD50 [1] of over 5000 mg/kg.

With `C[C@]12CCC(=O)C=C1CC[C@@H]1[C@@H]2[C@@H](O)C[C@]2(C=O)[C@@H](C(=O)CO)CC[C@@H]12` [aldosterone, reference compound] the “excreted urine volume after aldosterone” value (aldosterone; vs untreated animals, in words) was “reduction of the excreted urine volume”, the “potassium excretion after aldosterone” value (aldosterone; vs untreated animals, in words) was “increased potassium excretion” and the “sodium excretion after aldosterone” value (aldosterone; vs untreated animals, in words) was “pronounced reduction of the sodium excretion”.

In the case of `CCN1C(=O)CNC(c2ccccc2F)c2cc(C(C)N(C)C)ccc21` (stereo not drawn) [Example 7a, 7-[1-(dimethylamino)ethyl]-1-ethyl-5-(o-fluorophenyl)-1,3,4,5-tetrahydro-2H-1,4-benzodiazepin-2-one], the “Volume (urine volume) in %, based” value (aldosterone) is reported as 147%, the “[K+] (potassium excretion) in %, based” value (aldosterone) is reported as 90% and the “[Na+] (sodium excretion) in %, based” value (aldosterone) is reported as 252%. For the same compound, the LD50 [1] was 500 mg/kg.

In the case of `CCN1C(=O)CNC(c2ccccc2F)c2cc(C(C)NCCO)ccc21` (stereo not drawn) [Example 6, 1-ethyl-5-(o-fluorophenyl)-1,3,4,5-tetrahydro-7-/1-[(2-hydroxyethyl)-amino]ethyl/-2H-1,4-benzodiazepin-2-one], the “Volume (urine volume) in %, based” value (aldosterone) is reported as 150%, the “[K+] (potassium excretion) in %, based” value (aldosterone) is reported as 93% and the “[Na+] (sodium excretion) in %, based” value (aldosterone) is reported as 306%. For the same compound, the LD50 [1] was 4000 mg/kg.

With `CCN1C(=O)CN=C(c2ccccc2F)c2cc(C(C)OCOC)ccc21` (stereo not drawn) [Example 9a, 1-ethyl-5-(o-fluorophenyl)-1,3-dihydro-7-[1-(methoxymethoxy)ethyl]-2H-1,4-benzodiazepin-2-one] the “Volume (urine volume) in %, based” value (aldosterone) was 138%, the “[K+] (potassium excretion) in %, based” value (aldosterone) was 93% and the “[Na+] (sodium excretion) in %, based” value (aldosterone) was 359%. It also gave an LD50 [1] of 500 mg/kg.
